Data taken from US12629375B2, “Compounds with anti-tumor activity against cancer cells bearing HER2 exon 21 insertions” (Board of Regents, The University of Texas System, priority 2019, dated 2026).
pIC50: −log10 of the molar value.

Legend:
[1] = system: Ba/F3 cells stably expressing HER2 mutations (exons 19, 20, 21); assay: Ba/F3 HER2 mutant cell viability (Cell Titer Glo) TKI screen; format: cell-based
Procedure: Briefly, stable Ba/F3 cell lines were generated by retroviral transduction of Ba/F3 cell line for 12 hours. […] Three days after transduction, 2 μg/ml puromycin (Invitrogen) was added to the RPMI media. After 5 days of selection, cells were stained with FITC-HER2 (Biolegend) sorted by FACS. Cell lines were then grown in the absence of IL-3 for two weeks and cell viability was assessed every three days using the Cell Titer Glo assay (Progema).
(§1) Briefly, 2000-3000 cells per well were plated in 384-well plates (Greiner Bio-One) in technical triplicate. Cells were treated with seven different concentrations of tyrosine kinase inhibitors or vehicle alone at a final volume of 40 μL per well. After 3 days, 11μL of Cell Titer Glo was added to each well. Plates were shaken for 15 minutes, and bioluminescence was determined using a FLUOstar OPTIMA multi-mode micro-plate reader (BMG LABTECH). Bioluminescence values were normalized to DMSO treated cells, and normalized values were plotted in GraphPad Prism using non-linear regression fit to normalized data with a variable slope.

[2] = system: MCF10A cells expressing HER2 Y772dupYVMA; assay: MCF10A cell viability, HER2 Y772dupYVMA; format: cell-based; conditions: Homo sapiens, MCF-10A, 72 hours
Procedure: as §1, with “Cell Viability Assay and IC50 Estimation: Cell viability was determined using the Cell Titer Glo assay (Promega) as previously described (Robichaux et al., 2018). Briefly,” for “Briefly,”, “slope. IC50 values were calculated by GraphPad Prism at 50% inhibition.” for “slope.”
(§2) Human Cell lines: MCF10A cells were purchased from ATCC and were cultured in DMEM/F12 media supplemented with 1% penicillin/streptomycin, 5% horse serum (sigma), 20 ng/ml EGF, […] hydrocortisone, and 10 μg/ml insulin. Stable cell lines were created by retroviral transduction, and retroviruses were generated by transfecting pBabe-Puro based vectors summarized in Table 1 (Addgene and Bioinnovatise) into Phoenix 293T-ampho cells (Orbigen) using Lipofectamine 2000 (Invitrogen). […]

[3] = system: MCF10A cells expressing HER2 G778dupGSP; assay: MCF10A cell viability, HER2 G778dupGSP; format: cell-based; conditions: Homo sapiens, MCF-10A, 72 hours
Procedure: as §1, with “Cell Viability Assay and IC50 Estimation: Cell viability was determined using the Cell Titer Glo assay (Promega) as previously described (Robichaux et al., 2018). Briefly,” for “Briefly,”, “slope. IC50 values were calculated by GraphPad Prism at 50% inhibition.” for “slope.”
as §2

[4] = system: MCF10A HER2 mutant cell lines; assay: MCF10A cell viability, HER2 exon 20 mutant cell lines together (average, selectivity vs HER2 WT, T-DM1 combination); format: cell-based, human
Procedure: as §1
Human Cell lines: MCF10A cells were purchased from ATCC and were cultured in DMEM/F12 media supplemented with 1% penicillin/streptomycin, 5% horse serum (sigma), 20 ng/ml EGF, […] hydrocortisone, and 10 μg/ml insulin. […] Two days after transduction, 0.5 μg/ml puromycin (Invitrogen) was added to the RPMI media. […] CW-2 cells were provided by the Riken cell line database under MTA, and were maintained in RPMI containing 10% FBS and 1% penicillin/streptomycin.

[5] = system: CW-2 colorectal cell xenograft (HER2 L755S); assay: CW-2 xenograft mouse model; format: in vivo, nu/nu nude mice; conditions: day 21, 5 mg/kg, 5 days/week
Procedure: In vivo xenograft studies: CW-2 cell line xenografts were created by injecting 1×10^6 cells in 50% matrigel into 6 week old female nu/nu nude mice. When tumors reached 350 mm^3 mice were randomized into 4 groups: 20 mg/kg afatinib, 5 mg/kg poziotinib, 30 mg/kg neratinib, or vehicle control (0.5% Methylcellulose, 2% Tween-80 in dH2O). Tumor volumes were measured three times per week. Mice received drug Monday-Friday (5 days per week), but began dosing on Wednesday allowing for a 2 day holiday after the first 3 days of dosing.

[6] = system: cell surface HER2 on MCF10A cells expressing HER2 mutations; assay: FACS of cell surface HER2 expression; format: cell-based, human; conditions: 10 nM, 24 hours, average of MCF10A HER2 mutant lines
Procedure: FACS: MCF10A cells overexpressing HER2 mutations were plated overnight in a 6-well plate, then treated with 10 nM poziotinib. After 24 hours, cells were washed twice with PBS, and trypsinized. Cells were then resuspended in 0.5% FBS in PBS, and stained with anti-HER2-FITC antibody from Biolegend (#324404) for 45 minutes on ice. Cells were washed with 0.5% FBS in PBS twice, and analyzed by flow cytometry. IgG and unstained controls were used for gating.

[7] = MCF10A HER2 exon 20 mutants, ratio of average IC50

SMILES: C=CC(=O)N1CCC(Oc2cc3c(Nc4ccc(Cl)c(Cl)c4F)ncnc3cc2OC)CC1 [poziotinib, 1-[4-[4-(3,4-dichloro-2-fluoroanilino)-7-methoxyquinazolin-6-yl]oxypiperidin-1-yl]prop-2-en-1-one]
- average IC50 compared with afatinib, neratinib, or tarloxotinib-TKI ([1]; HER2 exon 19 and 20 mutations): significantly more efficacious
- average IC50 compared with afatinib, neratinib, or tarloxotinib-TKI ([1]; HER2 exon 21 mutants): no significant difference
- concentration inhibiting HER2 exon 21 mutants ([1]; HER2 exon 21 mutants): low nanomolar concentrations
- average IC50 across all HER2 mutation variants and TKIs tested ([1]; all Ba/F3 HER2 mutant cell lines, 72 hours): lowest average IC50
- inhibitory activity for HER2 mutants across all three exons ([1]; exons 19, 20, 21, 72 hours): had inhibitory activity
- pIC50 [2]: 8.08
- pIC50 [3]: 8.35
- times more potent than neratinib [4, 7]: 19 times
- times more potent than tarloxotinib-TKI [4, 7]: 2.6 times
- selectivity index (SI, IC50 value mutant/IC50 value WT) ([4]; MCF10A HER2 mutant vs HER2 WT cell lines): 0.028
- reduction in tumor volume compared to the vehicle treated group [5]: 58%
- increase of cell surface HER2 expression [6]: 2 fold
